Measured values reported in US8735584B2 (Merck Patent GmbH, priority 2008, dated 2014).

What follows are molecules tested against T1, GST-Aurora A (Homo sapiens, UniProt O14965) (assay: Aurora A IC50, Caliper LC3000 mobility shift assay). Details: LC3000 method; 15 uM ATP (the KM value); read-out: Aurora Kinase A Activity (IC50).
T1 construct: N-terminal GST fusion with full length Aurora A (1-403 amino acids); purchased Carna Biosciences 05-101
T1 sequence (O14965 1-403): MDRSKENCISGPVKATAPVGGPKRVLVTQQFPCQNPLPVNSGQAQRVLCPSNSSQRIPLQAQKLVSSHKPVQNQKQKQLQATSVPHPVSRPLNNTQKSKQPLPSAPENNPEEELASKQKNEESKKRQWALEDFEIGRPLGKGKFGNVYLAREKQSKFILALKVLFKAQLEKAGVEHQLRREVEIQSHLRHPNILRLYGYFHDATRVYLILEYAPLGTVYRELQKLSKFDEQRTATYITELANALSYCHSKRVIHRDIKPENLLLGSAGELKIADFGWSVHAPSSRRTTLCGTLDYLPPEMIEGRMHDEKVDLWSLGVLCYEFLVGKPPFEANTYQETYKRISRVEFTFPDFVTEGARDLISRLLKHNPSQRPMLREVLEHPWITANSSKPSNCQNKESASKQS
Type: biochemical
Method: The Aurora assays described here are performed on two Caliper Life Sciences systems: the LC3000 and the Desktop Profiler. These provide data on enzyme activity via measurement of the relative amounts of phosphorylated or unphosphorylated fluorescently labelled substrate peptide at the end of an enzymatic reaction. These different states of peptide are resolved by applying a potential difference across the sample. The presence of the charged phosphate group on the product (as opposed to the substrate) causes a different peptide mobility between the two peptides. This is visualized by excitation of the fluorescent label on the substrate and product peptides and represented as peaks within the analysis software.
In order to measure inhibitor activity of Aurora A inhibitors in the Caliper Life Sciences LC3000, a TTP Mosquito liquid handling instrument is used to place 0.25 ul of the appropriate concentration of inhibitor in 100% DMSO (for a dose response curve calculation) into each well of a 384-well plate. To this reaction components are added to a final volume of 25 ul: • 0.067 ng/ul GST-Aurora A (Carna Biosciences 05-101. N-terminal GST fusion with full length Aurora A (1-403 amino acids), accession number NP 940835.1). • 15 uM ATP (Fluke, 02055) • 1 mM DTT (Sigma, D0632) • 1 mM MgCl2 (Sigma, M1028) • 1 uM substrate peptide (sequence FITC-LRRASLG-(CONH2), synthesized by Tufts Peptide Synthesis service. • 100 mM HEPES pH 7.5 (Calbiochem, 391338) • 0.015% Brij-35 (Sigma, B4184)
The reaction is incubated for 90 min at 25 C, and then stopped by the addition of 70 ul of Stop buffer (100 mM HEPES pH 7.5, 0.015% Brij-35, 10 mM EDTA (Sigma, E7889)).
The plate is read on a Caliper LC3000 in an Off-Chip mobility shift assay format, using the following parameters for a 12-sipper chip: screening pressure—1.8 psi, upstream voltage—2700, downstream voltage—1000. These conditions cause unphosphorylated substrate and phosphorylated product peptide to resolve as separate peaks allowing direct measurement of percentage of conversion of substrate to product. The percent conversion can be plotted against concentration of inhibitor to produce a sigmoidal dose response curve, from which an 1050 can be calculated using XLFit for Microsoft Excel.
In the desired wells of a 384-well plate, Aurora A (0.067 ng/ul) was incubated with 15 uM ATP (the KM value), 1 mM DTT, 1 mM MgCl2, and 1 uM peptide substrate (sequence FITC-LRRASLG-(CONH2), FITC=fluorescein isothiocyanate) in 100 mM HEPES pH 7.5 and 0.015% Brij-35 buffer. The reaction was incubated for 90 min at 25 C, and then stopped by the addition of 45 ul of Stop buffer (100 mM HEPES ph 7.5, 0.015% Brij-35, 10 mM EDTA).
The plate was read in a Caliper LC 3000 in an Off-Chip mobility shift assay format, using the following parameters: screening pressure—1.8 psi, upstream voltage—2700, downstream voltage—1000. These conditions cause unphosphorylated substrate peptide to resolve as a peak before that of the phosphorylated peptide product.
In the following table “+” means >100 nM, “++” means 11-100 nM, and “+++” means <11 nM.

Row | IC50 | Structure (SMILES)
1 | > 100 nM | O=C(c1ccccc1)N1CC(Nc2ccnc3[nH]c(=O)c4ccccc4c23)C1 [Compound 366, 1-(1-Benzoylazetidin-3-ylamino)benzo[c][1,8]naphthyridin-6(5H)-one]
2 | > 100 nM | O=C(Cc1ccccc1)N1CCC(Nc2ccnc3[nH]c(=O)c4ccccc4c23)C1 (centres unmarked) [Compound 369, 1-(1-(2-Phenylacetyl)pyrrolidin-3-ylamino)benzo[c][1,8]naphthyridin-6(5H)-one]
3 | > 100 nM | O=C(CN1CC(Nc2ccnc3[nH]c(=O)c4ccccc4c23)C1)Nc1ccccc1 [Compound 370, 2-(3-(6-Oxo-5,6-dihydrobenzo[c][1,8]naphthyridin-1-ylamino)azetidin-1-yl)-N-phenylacetamide]
4 | > 100 nM | O=C(CN1CCC(Nc2ccnc3[nH]c(=O)c4ccccc4c23)C1)Nc1ccccc1 (centres unmarked) [Compound 371, 2-(3-(6-Oxo-5,6-dihydrobenzo[c][1,8]naphthyridin-1-ylamino)pyrrolidin-1-yl)-N-phenylacetamide]
5 | 11 to 100 nM | O=C(CN1CCC(Nc2ccnc3[nH]c(=O)c4ccccc4c23)CC1)Nc1ccccc1 [Compound 372, 2-(4-(6-Oxo-5,6-dihydrobenzo[c][1,8]naphthyridin-1-ylamino)piperidin-1-yl)-N-phenylacetamide]
6 | 11 to 100 nM | O=C(CN1CCC(Nc2ccnc3[nH]c(=O)c4ccccc4c23)CC1)Nc1cccc(F)c1 [Compound 373, N-(3-Fluorophenyl)-2-(4-(6-oxo-5,6-dihydrobenzo[c][1,8]naphthyridin-1-ylamino)piperidin-1-yl)acetamide]
7 | 11 to 100 nM | O=C(CN1CCC(Nc2ccnc3[nH]c(=O)c4ccccc4c23)CC1)Nc1ccc(F)cc1 [Compound 374, N-(4-Fluorophenyl)-2-(4-(6-oxo-5,6-dihydrobenzo[c][1,8]naphthyridin-1-ylamino)piperidin-1-yl)acetamide]
8 | > 100 nM | CN(C(=O)CN1CCC(Nc2ccnc3[nH]c(=O)c4ccccc4c23)CC1)c1ccccc1 [Compound 377, N-Methyl-2-(4-(6-oxo-5,6-dihydrobenzo[c][1,8]naphthyridin-1-ylamino)piperidin-1-yl)-N-phenylacetamide]
9 | < 11 nM | O=C(Nc1ccc(Nc2ccnc3[nH]c(=O)c4ccccc4c23)cc1)c1ccc(F)cc1C(F)(F)F [Compound 378, 4-Fluoro-N-[4-(6-oxo-5,6-dihydro-benzo[c][1,8]naphthyridin-1-ylamino)-phenyl]-2-trifluoromethyl-benzamide]
10 | < 11 nM | O=C(Nc1ccc(Nc2ccnc3[nH]c(=O)c4ccccc4c23)cc1)c1ccccc1C(F)(F)F [Compound 379, N-[4-(6-Oxo-5,6-dihydro-benzo[c][1,8]naphthyridin-1-ylamino)-phenyl]-2-trifluoromethyl-benzamide]
11 | < 11 nM | O=C(Nc1ccc(Nc2ccnc3[nH]c(=O)c4ccccc4c23)cc1)c1ccccc1F [Compound 380, 2-Fluoro-N-[4-(6-oxo-5,6-dihydro-benzo[c][1,8]naphthyridin-1-ylamino)-phenyl]-benzamide]
12 | < 11 nM | O=C(Nc1ccc(Nc2ccnc3[nH]c(=O)c4ccccc4c23)cc1)c1cccc(F)c1 [Compound 381, 3-Fluoro-N-[4-(6-oxo-5,6-dihydro-benzo[c][1,8]naphthyridin-1-ylamino)-phenyl]-benzamide]
13 | < 11 nM | O=C(Nc1ccc(Nc2ccnc3[nH]c(=O)c4ccccc4c23)cc1)c1ccc(F)cc1 [Compound 382, 4-Fluoro-N-[4-(6-oxo-5,6-dihydro-benzo[c][1,8]naphthyridin-1-ylamino)-phenyl]-benzamide]
14 | < 11 nM | O=C(Nc1ccc(Nc2ccnc3[nH]c(=O)c4ccccc4c23)cc1)c1ccc(F)c(F)c1 [Compound 384, 3,4-Difluoro-N-[4-(6-oxo-5,6-dihydro-benzo[c][1,8]naphthyridin-1-ylamino)-phenyl]-benzamide]
15 | < 11 nM | O=C(Nc1ccc(Nc2ccnc3[nH]c(=O)c4ccccc4c23)cc1)c1cc(F)cc(F)c1 [Compound 385, 3,5-Difluoro-N-[4-(6-oxo-5,6-dihydro-benzo[c][1,8]naphthyridin-1-ylamino)-phenyl]-benzamide]

The next lines start with the molecule.

Row | Structure (SMILES) | IC50
16 | CN1CCC(C(=O)Nc2ccc(Nc3ccnc4[nH]c(=O)c5ccccc5c34)cc2)CC1 [Compound 346, 1-Methyl-N-(4-(6-oxo-5,6-dihydrobenzo[c][1,8]naphthyridin-1-ylamino)phenyl)piperidine-4-carboxamide] | > 100 nM
17 | O=C(Nc1ccc(Nc2ccnc3[nH]c(=O)c4ccccc4c23)cc1)C(F)(F)F [Compound 348, 2,2,2-Trifluoro-N-(4-(6-oxo-5,6-dihydrobenzo[c][1,8]naphthyridin-1-ylamino)phenyl)acetamide] | > 100 nM
18 | O=C(CC(F)(F)F)Nc1ccc(Nc2ccnc3[nH]c(=O)c4ccccc4c23)cc1 [Compound 349, 3,3,3-Trifluoro-N-(4-(6-oxo-5,6-dihydrobenzo[c][1,8]naphthyridin-1-ylamino)phenyl)propanamide] | < 11 nM
19 | O=C(Cc1ccccc1)Nc1ccc(Nc2ccnc3[nH]c(=O)c4ccccc4c23)cc1 [Compound 350, N-(4-(6-Oxo-5,6-dihydrobenzo[c][1,8]naphthyridin-1-ylamino)phenyl)-2-phenylacetamide] | 11 to 100 nM
20 | O=C(Nc1ccc(Nc2ccnc3[nH]c(=O)c4ccccc4c23)cc1)C1CC1 [Compound 351, N-(4-(6-Oxo-5,6-dihydrobenzo[c][1,8]naphthyridin-1-ylamino)phenyl)cyclopropanecarboxamide] | 11 to 100 nM
21 | O=C(CC1CC1)Nc1ccc(Nc2ccnc3[nH]c(=O)c4ccccc4c23)cc1 [Compound 352, 2-Cyclopropyl-N-(4-(6-oxo-5,6-dihydrobenzo[c][1,8]naphthyridin-1-ylamino)phenyl)acetamide] | 11 to 100 nM
22 | CN1CCN(Cc2cccc(C(=O)Nc3ccc(Nc4ccnc5[nH]c(=O)c6ccccc6c45)cc3)c2)CC1 [Compound 354, 3-((4-Methylpiperazin-1-yl)methyl)-N-(4-(6-oxo-5,6-dihydrobenzo[c][1,8]naphthyridin-1-ylamino)phenyl)benzamide] | > 100 nM
23 | CN1CCN(Cc2ccccc2C(=O)Nc2ccc(Nc3ccnc4[nH]c(=O)c5ccccc5c34)cc2)CC1 [Compound 355, 2-((4-Methylpiperazin-1-yl)methyl)-N-(4-(6-oxo-5,6-dihydrobenzo[c][1,8]naphthyridin-1-ylamino)phenyl)benzamide] | > 100 nM
24 | O=C(Nc1ccc(Nc2ccnc3[nH]c(=O)c4ccccc4c23)cc1)c1ccccc1OCCCN1CCOCC1 [Compound 357, 2-(3-morpholinopropoxy)-N-(4-(6-oxo-5,6-dihydrobenzo[c][1,8]naphthyridin-1-ylamino)phenyl)benzamide] | > 100 nM
25 | O=C(c1cc(F)cc(F)c1)N1CCC(CNc2ccnc3[nH]c(=O)c4ccccc4c23)C1 (centres unmarked) [Compound 362, 1-((1-(3,5-Difluorobenzoyl)pyrrolidin-3-yl)methylamino)benzo[c][1,8]naphthyridin-6(5H)-one] | > 100 nM
26 | O=C(Nc1ccccc1)C1(CNc2ccnc3[nH]c(=O)c4ccccc4c23)CC1 [Compound 363, 1-((6-Oxo-5,6-dihydrobenzo[c][1,8]naphthyridin-1-ylamino)methyl)-N-phenylcyclopropanecarboxamide] | > 100 nM
